The record followed here is patent US20240294508A1, “RIP1 MODULATORS INCLUDING AZETIDINE CYCLIC UREAS, PREPARATIONS, AND USES THEREOF” (SIRONAX LTD., priority 2021, published 2024).

By EC50 is commonly meant the concentration needed to bring the measured effect to its halfway point.

The assay concerns HT-29 cells. As to the kind of experiment: HT29 cells 0FBS assay in vitro: TNF-α/SMAC mimetic/zVAD-FMK induced necroptosis, CellTiter-Glo cell viability (RIP1 inhibitory activity). The conditions noted are these: Homo sapiens, FBS free medium, TNF-α (10 ng/ml) + SMAC mimetic (6 uM) + zVAD-FMK (10 μM), 20 hours, geometric mean EC50. It counts as cell-based. The procedure, abridged: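 Luminescent ATP read-out (CellTiter-Glo) gave viability of HT-29 cells after 20 h at 37° C in serum-free medium containing compound and a necroptosis cocktail of 10 ng/ml TNF-α, 6 uM SMAC mimetic and 10 μM zVAD-FMK. EC50s are geometric means of 10-point curves run in duplicate.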
A general note: Cellular ATP, detected with luciferase, serves as a proxy for viable cell number.
In the case of `Cc1nn(-c2cc(OC3CN(C(=O)N4N=CC[C@H]4c4cc(F)cc(Cl)c4)C3)c(F)cn2)c(C)c1C(N)=O` [Compound 133, (S)-1-(4-((1-(5-(3-chloro-5-fluorophenyl)-4,5-dihydro-1H-pyrazole-1-carbonyl)azetidin-3-yl)oxy)-5-fluoropyridin-2-yl)-3,5-dimethyl-1H-pyrazole-4-carboxamide], the EC50 was in the range of 0.1 to 100 nM.

Take `Cn1nccc1-c1cnc(OC2CN(C(=O)N3N=CC[C@H]3c3cc(F)cc(F)c3)C2)s1` [Compound 153, (S)-(5-(3,5-difluorophenyl)-4,5-dihydro-1H-pyrazol-1-yl)(3-((5-(1-methyl-1H-pyrazol-5-yl)thiazol-2-yl)oxy)azetidin-1-yl)methanone]: the half-maximal effective concentration (EC50) is 0.1 to 100 nM.

With `Cn1nc(N)cc1-c1cc(OC2CN(C(=O)N3N=CC[C@H]3c3cc(F)cc(C#N)c3)C2)c(F)cn1` [Compound 35, (S)-3-(1-(3-((2-(3-amino-1-methyl-1H-pyrazol-5-yl)-5-fluoropyridin-4-yl)oxy)azetidine-1-carbonyl)-4,5-dihydro-1H-pyrazol-5-yl)-5-fluorobenzonitrile], the EC50 fell in the range of 0.1 to 100 nM.

For the compound `Cc1nn(-c2cc(OC3CN(C(=O)N4N=CC[C@H]4c4cncc(F)c4)C3)c(F)cn2)c(C)c1C(N)=O` [Compound 63, (S)-1-(5-fluoro-4-((1-(5-(5-fluoropyridin-3-yl)-4,5-dihydro-1H-pyrazole-1-carbonyl)azetidin-3-yl)oxy)pyridin-2-yl)-3,5-dimethyl-1H-pyrazole-4-carboxamide], the EC50 lay within 100 to 1000 nM.

On to `Cn1ncc(-c2cc(OC3CN(C(=O)N4N=CC[C@H]4c4cc(F)cc(C#N)c4)C3)c(F)cn2)n1` [Compound 15, (S)-3-fluoro-5-(1-(3-((5-fluoro-2-(2-methyl-2H-1,2,3-triazol-4-yl)pyridin-4-yl)oxy)azetidine-1-carbonyl)-4,5-dihydro-1H-pyrazol-5-yl)benzonitrile], for which the EC50 was in the range of 100 to 1000 nM.

Regarding `Cc1cnc([C@@H]2CC=NN2C(=O)N2CC(Oc3cc(-c4c(C)cnn4C)ncc3F)C2)s1` [Compound 138, (S)-(3-((2-(1,4-dimethyl-1H-pyrazol-5-yl)-5-fluoropyridin-4-yl)oxy)azetidin-1-yl)(5-(5-methylthiazol-2-yl)-4,5-dihydro-1H-pyrazol-1-yl)methanone], the EC50 fell in the range of 0.1 to 100 nM.

For `CCNC(=O)c1c(C)nn(-c2cc(OC3CN(C(=O)N4N=CC[C@H]4c4cc(F)cc(C#N)c4)C3)c(F)cn2)c1C` [Compound 87, (S)-1-(4-((1-(5-(3-cyano-5-fluorophenyl)-4,5-dihydro-1H-pyrazole-1-carbonyl)azetidin-3-yl)oxy)-5-fluoropyridin-2-yl)-N-ethyl-3,5-dimethyl-1H-pyrazole-4-carboxamide], the EC50 was in the range of 0.1 to 100 nM.

For `Cn1ncc(Cl)c1-c1cc(OC2CN(C(=O)N3N=CC[C@H]3c3cncc(F)c3)C2)c(F)cn1` [Compound 43, (S)-(3-((2-(4-chloro-1-methyl-1H-pyrazol-5-yl)-5-fluoropyridin-4-yl)oxy)azetidin-1-yl)(5-(5-fluoropyridin-3-yl)-4,5-dihydro-1H-pyrazol-1-yl) methanone], the EC50 lay in the range of 0.1 to 100 nM.

For `Cc1cnn(C)c1-c1ncc(F)c(OC2CN(C(=O)N3N=CC[C@H]3c3cncc(C#N)c3)C2)n1` [Compound 33, (S)-5-(1-(3-((2-(1,4-dimethyl-1H-pyrazol-5-yl)-5-fluoropyrimidin-4-yl)oxy)azetidine-1-carbonyl)-4,5-dihydro-1H-pyrazol-5-yl)nicotinonitrile], the EC50 lay within 0.1 to 100 nM.

On to `Cc1nn(-c2cc(OC3CN(C(=O)C4=NNCC4c4cc(F)cc(F)c4)C3)c(F)cn2)c(C)c1C(N)=O` (stereo not shown) [Compound 162, 1-(4-((1-(4-(3,5-difluorophenyl)-4,5-dihydro-1H-pyrazole-3-carbonyl)azetidin-3-yl)oxy)-5-fluoropyridin-2-yl)-3,5-dimethyl-1H-pyrazole-4-carb oxamide], for which the EC50 lay within 0.1 to 100 nM.
